# Measurements published in patent US20200271640A1, “METHOD FOR SCREENING COMPOUNDS THAT MODULATE THE ACTIVITY OF THE ELECTRON TRANSPORT CHAIN” (IMG Pharma Biotech, S.L., priority 2017, published 2020).
# “Also recorded” adds a separate entry of the source.
# Experiments:
# [1] = tested on: mitochondrial supercomplexes; experiment: DAB oxidation activity assay of complexes and supercomplexes of the mitochondrial ETC in rat heart MMP; details: for effect on NADH evoked inhibition (inhibition period) of DAB oxidation, supercomplex activity: in presence of NADH; for inhibition of DAB oxidation by the substrate itself: substrate alone; for effect on NADPH consumption rate / NADPH-inhibition period of DAB oxidation: in presence of NADPH; for effect on succinate evoked decrease in DAB oxidation: in presence of succinate
# Method: The crude homogenate was subjected to a 1000×g for 8 min, and the resultant supernatant was centrifuged again at 18,000×g for 15 min (4° C., Microfuge® 22R centrifuge, Beckman Coulter). The pellet was washed in 20 volumes of homogenized buffer using an Ultra-Turrax® (T10 basic, IKA) and re-centrifuged under the same conditions. The homogenate aliquots were stored at −80 ° C. until they were used. Protein concentration was measured by the Bradford method and adjusted to the required concentrations.
# (§5) The assay buffer consisted of a phosphate buffer (pH 7,4), EDTA, Cl2Mg, BSA and 3,3′-diaminobenzidine (DAB) in the absence or in the presence of CI and CII substrates and the tested drugs. The reaction was started by adding 0.1 mg/ml membranes homogenates to the assay buffer (25° C.) or putting into contact cell membrane microarrays with assay buffer. DAB oxidation was measured every 5-10 min spectrophotometrically at 460 and 595 nm in a Multiskan microtiter plate reader (Thermo Scientific) for 960 min in the case of homogenates
# Results were expressed as means of independent data points±S.E.M. In sake of clarity, biochemical data (Complex I and II activities, superoxide production and supercomplex activity) are presented as percentage of controls with or without the application of ETC inhibitors. Data were analyzed using paired Student's t-test, one-way (followed by Tukey's post hoc test) or two-way ANOVA (followed by Bonferroni's post hoc test), as appropriate.
# superoxide production = experiment: Superoxide production, NBT reduction in membrane homogenates; assay type: biochemical, rat; details: NADH (0.7 mM)
# Method: The assay medium for measurement of superoxide production consisted of a 50 mM phosphate buffer (Na2HPO4, NaH2PO4, pH 7,4), 0.5 mg/ml nitro blue tetrazolium (NBT) as a redox dye and CI or CII substrates. The reaction was started by the addition of 0.1 mg/ml membranes homogenates for 360 min (25° C.) with or without decylubiquinone and ETC inhibitors.
# [2] = tested on: succinate dehydrogenase (complex II); experiment: succinate dehydrogenase (complex II) activity assay, DCIP reduction; assay type: biochemical, rat; details: succinate (1 mM)
# Method: (§1) CI and CII assays were performed based on a previous protocol with some modifications. The reaction mixture consisted of potassium phosphate buffer (0.8M K2HPO4, 0.2M KH2PO4, pH 7.4), 3 mg/ml BSA, 160 μM 2,6-dichloroindophenol (DCIP) (Sigma) together with the CI or CII substrates. The reaction was started by the addition of 0.1 mg/ml membranes homogenates (25° C.) in the absence or in the presence of decylubiquinone and ETC inhibitors. […] Control experiments were performed to exclude any interference or substrate interaction.
# [3] = tested on: mitochondrial supercomplexes; experiment: DAB oxidation supercomplex assay in MMP isolated from heart of cynomolgus monkey; assay type: biochemical; details: MMP from hearts of cynomolgus monkey
# Method: as §5
# [4] = tested on: NADH-ubiquinone oxidoreductase (complex I); experiment: NADH-ubiquinone oxidoreductase (complex I) activity assay, DCIP reduction; assay type: biochemical, rat; details: NADH (0.7 mM)
# Method: as §1
# electron transport chain = details: human tissue cell membrane microarrays
# Method: (§2) Membrane homogenates isolated from human liver were suspended in buffer and they were printed (4 nL per spot, 2-5 replicates per sample) at increasing concentrations together with internal patrons onto glass slides using a non-contact microarrayer (Nano_plotter NP 2.1). The same process was used for developing cell membrane microarrays of different human tissues or rat tissues. Microarrays were stored at −20° C. until they were used. ETC activity assay using DAB and NBT as redox dyes
# (§3) The assay buffer consisted of a 10 mM phosphate buffer (pH 7.4), 0.05% 3,3′-diaminobenzidine (DAB) or NBT (Nitro blue tetrazolium), 0.2 mM EGTA, 3 mg/ml BSA with or without mitochondrial ETC substrates and electron carriers, such as NADH and succinate. The reaction was started by adding 100 μl of the assay buffer to cell membrane microarrays using an incubation chamber. DAB oxidation or NBT reduction were measured every 20 min using a colorimetric high resolution scanner (Epson Perfection V750 Pro) for 24 hours.
# (§4) Microphotographs were captured with the same light parameters and the collection of images was quantified with the MAPIX software (version 7.3.1). The optical densities obtained at different times were analyzed and the slope determined in the linear range was used to calculate the enzymatic rate.
# [5] = tested on: reactive oxygen species (ROS) such as superoxide; details: human tissue cell membrane microarrays
# Method: as §2, §3, §4
compound,measurement,setting,value
N#CC(C#N)=NNc1cccc(Cl)c1 [CCCP],"effect on NADH evoked inhibition (inhibition period) of DAB oxidation, supercomplex activity",[1]; rat heart MMP,induces changes in both
O=[N+]([O-])c1ccc(O)c([N+](=O)[O-])c1 [DNP],"effect on NADH evoked inhibition (inhibition period) of DAB oxidation, supercomplex activity",[1]; rat heart MMP,does not alter DAB oxidation
NC(=O)C1=CN([C@@H]2O[C@H](COP(=O)(O)OP(=O)(O)OC[C@H]3O[C@@H](n4cnc5c(N)ncnc54)[C@H](O)[C@@H]3O)[C@@H](O)[C@H]2O)C=CC1 [NADH],inhibition of DAB oxidation by the substrate itself,[1]; rat heart MMP,full blockage
NC(=O)C1=CN([C@@H]2O[C@H](COP(=O)(O)OP(=O)(O)OC[C@H]3O[C@@H](n4cnc5c(N)ncnc54)[C@H](OP(=O)(O)O)[C@@H]3O)[C@@H](O)[C@H]2O)C=CC1 [NADPH],inhibition of DAB oxidation by the substrate itself,[1]; rat heart MMP,inhibits DAB oxidation
NC(=O)c1ccc[n+]([C@@H]2O[C@H](COP(=O)([O-])OP(=O)(O)OC[C@H]3O[C@@H](n4cnc5c(N)ncnc54)[C@H](O)[C@@H]3O)[C@@H](O)[C@H]2O)c1 [NAD],effect on NADPH consumption rate / NADPH-inhibition period of DAB oxidation,[1]; rat heart MMP,reduces it
CCCCCCCCCCCCOS(=O)(=O)[O-].[Na+] [SDS],"effect on NADH evoked inhibition (inhibition period) of DAB oxidation, supercomplex activity",[1]; rat heart MMP,effects also observed
[Zn+2] [Zinc],"effect on NADH evoked inhibition (inhibition period) of DAB oxidation, supercomplex activity",[1]; rat heart MMP,enhances the inhibition period evoked by NADH
"CCCCCCCCCCC1=C(C)C(=O)C(OC)=C(OC)C1=O [dUQ, decylubiquinone]",effect on inhibitor mediated enhancement of NADH inhibition of DAB oxidation,"[1]; dUQ at 10 μM, with NADH and rotenone, antimycin A or myxothiazol",reducing the inhibitor mediated effects; also recorded: partial blockage of the rotenone effect
same,effect on inhibitor mediated enhancement of NADH inhibition of DAB oxidation,"[1]; dUQ at 50 μM, with NADH and rotenone or antimycin A",potentiating those evoked by rotenone and antimycin A
same,effect on DAB oxidation blockage at higher concentrations of succinate,"[1]; rat heart MMP, higher concentrations of succinate (5 mM in FIG. 1e)",potentiates the DAB oxidation blockage
same,"effect on NADH evoked inhibition (inhibition period) of DAB oxidation, supercomplex activity",[1]; rat heart MMP,slight reduction of the NADH evoked inhibition of DAB oxidation
same,effect on NADPH consumption rate / NADPH-inhibition period of DAB oxidation,[1]; rat heart MMP,NADPH-inhibition period is enhanced
same,superoxide production using NADH,superoxide production,increased in the presence of dUQ
same,"effect of dUQ on the inhibitor's block of DCIP reduction, succinate","[2]; antimycin A, dUQ (50 μM)",blocks the effect of antimycin A
same,effect on NADH-dependent inhibition period of DAB oxidation,[3]; NADH (0.7 mM),significantly reduces the NADH-dependent inhibition period of DAB oxidation
same,partial blockage of the rotenone effect by dUQ,[3]; NADH with rotenone,not detected in monkey
same,"effect of dUQ on the inhibitor's block of DCIP reduction, NADH","[4]; myxothiazol, dUQ (50 μM)",does not produce the same effect with myxothiazol
C[C@@H]1CC[C@@]2(OC1)O[C@H]1[C@@H](O)[C@H]3[C@@H]4CC[C@H]5C[C@@H](O[C@@H]6O[C@H](CO)[C@H](O[C@@H]7O[C@H](CO)[C@@H](O)[C@H](O[C@@H]8OC[C@@H](O)[C@H](O)[C@H]8O)[C@H]7O[C@@H]7O[C@H](CO)[C@H](O)[C@H](O[C@@H]8O[C@H](CO)[C@@H](O)[C@H](O)[C@H]8O)[C@H]7O)[C@H](O)[C@H]6O)[C@H](O)C[C@]5(C)[C@H]4CC[C@]3(C)[C@H]1[C@@H]2C [digitonin],"effect on NADH evoked inhibition (inhibition period) of DAB oxidation, supercomplex activity",[1]; rat heart MMP,enhancement on the NADH inhibition period
CO/C(=C/C(N)=O)[C@H](C)[C@H](/C=C/c1csc(-c2csc([C@@H](C)/C=C/C=C/C(C)C)n2)n1)OC [myxothiazol],effect on succinate evoked decrease in DAB oxidation,[1]; rat heart MMP,promotes the blockage of the succinate-derived electron input
same,DCIP reduction with succinate as substrate,[2],not myxothiazol did it
same,DCIP reduction in the presence of NADH,[4],efficiently blocked DCIP reduction
C=C(C)[C@H]1Cc2c(ccc3c2O[C@@H]2COc4cc(OC)c(OC)cc4[C@@H]2C3=O)O1 [rotenone],"effect on NADH evoked inhibition (inhibition period) of DAB oxidation, supercomplex activity",[1]; rat heart MMP,enhances the substrate evoked inhibition of DAB oxidation
same,superoxide production using NADH,superoxide production,induces superoxide formation
O=C(O)CCC(=O)O [succinate],inhibition of DAB oxidation by the substrate itself,[1]; rat heart MMP,partial inhibition
same,ETC activity quantified using DAB as redox dye,electron transport chain,tissue specifically modulated
same,formation of reactive oxygen species (formazan production),[5],produces the formation of reactive oxygen species (ROS) such as superoxide
antimycin A,"effect on NADH evoked inhibition (inhibition period) of DAB oxidation, supercomplex activity",[1]; rat heart MMP,enhancement of the NADH-inhibition period
same,effect on succinate evoked decrease in DAB oxidation,[1]; rat heart MMP,blocks the electron flux generated by CII to cyt c
same,superoxide production using NADH,superoxide production,biphasic effect in which a maximum was observed in low micromolar range
same,DCIP reduction with succinate as substrate,[2],did it
same,DCIP reduction in the presence of NADH,[4],not antimycin A efficiently blocked DCIP reduction
cytochrome c [cyt c],"effect on NADH evoked inhibition (inhibition period) of DAB oxidation, supercomplex activity",[1]; rat heart MMP,cannot bypass the full inhibition caused by NADH on DAB oxidation; also recorded: decreases the time period in which a specific NADH concentration induces the DAB oxidation blockage
same,effect on NADPH consumption rate / NADPH-inhibition period of DAB oxidation,[1]; rat heart MMP,increases the NADPH consumption rate
same,effect on succinate evoked decrease in DAB oxidation,[1]; rat heart MMP,reduces the effect promoted by CI and CII substrates on DAB oxidation
same,NADH consumption rate in the presence of ETC inhibitors,"[1]; soluble cyt c, with NADH and ETC inhibitors",accelerates the NADH consumption rate
sodium deoxycholate,"effect on NADH evoked inhibition (inhibition period) of DAB oxidation, supercomplex activity",[1]; rat heart MMP,effects also observed
